Laboratory results reported in patent publication US5300672A (priority 1992, dated 1994).
Like-named read-outs stand apart in the source and are kept apart here.

Assays:
Phytophthora infestans = experiment: whole plant or invertebrate; type: in vivo; conditions: for pest or weed control at 200 ppm / pest or weed control at 100 ppm: Phytophthora infestans, in Solanum lycopersicum, 96 h
[1] = system: Pellicularia filamentosa (f. sp. sasiki); experiment: whole plant or invertebrate; type: in vivo; conditions: for pest or weed control at 200 ppm / pest or weed control at 100 ppm: 120 h, read-out: % Control RSB; for % Control RSB: in vivo
[2] = system: Puccinia graminis (f. sp. tritici Race 15B-2); experiment: whole plant or invertebrate; type: in vivo; conditions: for pest or weed control at 200 ppm / pest or weed control at 100 ppm: Puccinia graminis, 336 h, read-out: % Control WSR
[3] = system: Erysiphe graminis (f. sp. tritici); experiment: whole plant or invertebrate; type: in vivo; conditions: for pest or weed control at 200 ppm / pest or weed control at 100 ppm: Blumeria graminis, read-out: % Control WPM; for % Control WPM: in vivo
[4] = system: Pseudoperonospora cubensis; experiment: whole plant or invertebrate; type: in vivo; conditions: for % Control CDM: in vivo
Piricularia oryzae = experiment: whole plant or invertebrate; type: in vivo; conditions: for pest or weed control at 50 ppm: read-out: % Control RB, application rate 50 ppm; for pest or weed control at 100 ppm: read-out: % Control RB, application rate 100 ppm; for % Control RB: in vivo
[5] = system: Puccinia recondita (f. sp. tritici Races PKB and PLD); experiment: whole plant or invertebrate; type: in vivo; conditions: for % Control WLR: in vivo
Pseudomonas fluorescens = experiment: Alternate Minimum Inhibitory Concentrations Test (Table 4), Ps.fl; type: cell-based; conditions: Table 4 alternate test, 250 ppm to 0.8 ppm in TSB, 72 hours, 30° C.; for MIC: Pseudomonas fluorescens, read-out: MIC Ps.fl
Procedure, shortened: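 MIC taken as lowest concentration showing no growth after 72 h incubation at 30 °C in TSB. Twofold dilution series spanned 250 down to 0.8 ppm, wells inoculated with phosphate-buffer-diluted 24 h culture.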

[6] = Pseudoperonospora cubensis, in Cucumis sativus, 168 h, read-out: % Control CDM
[7] = Puccinia recondita, 240 h, read-out: % Control WLR
[8] = Pyricularia oryzae, read-out: % Control RB, application rate 200 ppm
[9] = read-out: % Control TLB, application rate 200 ppm

| Compound | pest or weed control at 200 ppm (Phytophthora infestans; read-out: % Control TLB) | pest or weed control at 200 ppm [1] | pest or weed control at 200 ppm [2] | pest or weed control at 200 ppm [3] | pest or weed control at 200 ppm [5, 7] | MIC (Pseudomonas fluorescens) | pest or weed control at 100 ppm (Phytophthora infestans; read-out: % Control TLB) | pest or weed control at 50 ppm [4, 6] | pest or weed control at 200 ppm (Piricularia oryzae; [8]) | pest or weed control at 100 ppm [2] | pest or weed control at 200 ppm [4, 6] | also measured |
| --- | --- | --- | --- | --- | --- | --- | --- | --- | --- | --- | --- | --- |
| CCCCCCCCNC(=O)/C=C\SC(=O)/C=C/c1ccco1 [Compound 68, N-octyl-cis-3-[(trans-3-(2-furan)propenoyl)thio]acrylamide] | 90% | 0% | 90% | 0% | 0% | > 250 µg/mL |  |  |  |  |  | pest or weed control at 12 ppm [4, 6]: 70%; pest or weed control at 50 ppm (Piricularia oryzae; Pyricularia oryzae): 80% |
| CCCCCCCCNC(=O)/C=C\SC(=O)c1ccccc1Br [Compound 5, N-octyl-cis-3-[(2-bromobenzoyl)thio]acrylamide] |  |  | 75% |  |  | > 250 µg/mL | 90% | 50% |  |  |  | pest or weed control at 100 ppm [1]: 0%; pest or weed control at 100 ppm [3]: 0%; pest or weed control at 25 ppm (Piricularia oryzae; Pyricularia oryzae, read-out: % Control RB, application rate 25 ppm): 80%; pest or weed control at 100 ppm [5, 7]: 0% |
| CCCCCCCCNC(=O)/C=C\SC(=O)c1sccc1C [Compound 50, N-octyl-cis-3-[(3-methyl-2-thiophene)carbonylthio]acrylamide] |  |  | 75% |  |  | > 250 µg/mL | 80% | 85% | 0% |  |  |  |
| CCCCCCCCNC(=O)/C=C\SC(=O)/C(=C/c1ccccc1)c1ccccc1 [Compound 82, N-octyl-cis-3-[(cis-2,3-diphenylpropenoyl)thio]acrylamide] |  | 0% |  | 0% |  | > 250 µg/mL |  |  | 90% | 50% | 0% | pest or weed control at 200 ppm (Phytophthora infestans; [9]): 0%; pest or weed control at 50 ppm [5, 7]: 50% |
| CCCCCCCCNC(=O)/C=C\SC(=O)COc1ccccc1 [Compound 26, N-octyl-cis-3-(phenoxyacetylthio)acrylamide] |  |  |  |  |  | > 250 µg/mL | 90% | 85% |  | 90% |  | pest or weed control at 100 ppm [1]: 0%; pest or weed control at 100 ppm [3]: 0%; pest or weed control at 100 ppm (Piricularia oryzae; Pyricularia oryzae): 80%; pest or weed control at 100 ppm [5, 7]: 0% |
| N-octyl-cis-3-[(2-butenoyl)thio]acrylamide [Compound 20] |  |  |  |  |  |  |  |  |  |  |  | % Control TLB (Phytophthora infestans; application rate 6 ppm): 95 % Control; % Control RSB [1]: 0 % Control; % Control WSR ([2]; application rate 200 ppm): 75 % Control; % Control WPM [3]: 0 % Control; % Control CDM [4]: 85 % Control; % Control RB (Piricularia oryzae): 50 % Control; % Control WLR [5]: 0 % Control; MIC Ps.fl (Pseudomonas fluorescens): > 250 Ppm |
| CCCCCCCCNC(=O)/C=C\SC(=O)CCc1ccccc1 [Compound 69, N-octyl-cis-3-[(3-phenylpropanoyl)thio]acrylamide] |  | 0% | 75% | 0% |  | > 250 µg/mL |  | 85% | 80% |  |  | pest or weed control at 200 ppm (Phytophthora infestans; [9]): 100%; % Control WLR [5]: 0 % Control |
| CCCCCCCCNC(=O)/C=C\SC(=O)CCCCl [Compound 29, N-octyl-cis-3-[(4-chlorobutanoyl)thio]acrylamide] |  |  | 75% |  |  | > 250 µg/mL | 90% | 85% | 75% |  |  | pest or weed control at 100 ppm [1]: 0%; pest or weed control at 100 ppm [3]: 0%; pest or weed control at 100 ppm [5, 7]: 0% |
| CCCCCCCCNC(=O)/C=C\SC(=O)C1=CC(=O)CC(C)(C)O1 [Compound 89, N-octyl-cis-3-[(3,4-dihydro-2,2-dimethyl-4-oxo-2H-pyran-6-carbonyl)thio]acrylamide] | 90% | 0% |  | 0% | 90% | > 250 µg/mL |  |  |  | 80% | 70% | pest or weed control at 200 ppm (Piricularia oryzae; Pyricularia oryzae, read-out: % Control RB): 95% |
| CCCCCCCCNC(=O)/C=C\SC(=O)C(C)(C)CCl [Compound 44, N-octyl-cis-3-[(2,2-dimethyl-3-chloropropanoyl)thio]acrylamide] | 90% | 0% |  | 0% | 0% | > 250 µg/mL |  |  | 0% | 0% | 0% |  |
| CCCCCCCCNC(=O)/C=C\SC(=O)C1CCCCC1 [Compound 4, N-octyl-cis-3-(cyclohexanecarbonylthio)acrylamide] |  |  | 50% |  |  | > 250 µg/mL | 90% | 99% |  |  |  | pest or weed control at 100 ppm [1]: 0%; pest or weed control at 100 ppm [3]: 0%; pest or weed control at 100 ppm (Piricularia oryzae; Pyricularia oryzae): 80%; pest or weed control at 100 ppm [5, 7]: 0% |
| CCCCCCCCNC(=O)/C=C\SC(=O)CC1C=CCC1 (stereo not shown) [Compound 93] | 90% | 0% |  | 75% | 50% | > 250 µg/mL |  |  |  | 50% | 99% | pest or weed control at 50 ppm (Piricularia oryzae; Pyricularia oryzae): 90% |
| CCCCCCCCNC(=O)/C=C\SC(=O)CC=Cc1ccccc1 [Compound 88, N-octyl-cis-3-[(4-phenylbut-3-enoyl)thio]acrylamide] | 90% |  |  | 0% |  | > 250 µg/mL |  |  | 90% | 0% | 70% | pest or weed control at 50 ppm [5, 7]: 80% |
| CCCCCCCCNC(=O)/C=C\SC(=O)c1ccc([N+](=O)[O-])cc1 [Compound 46, N-octyl-cis-3-[(4-nitrobenzoyl)thio]acrylamide] |  |  | 100% |  |  | > 250 µg/mL |  | 99% | 75% |  |  | pest or weed control at 100 ppm (Phytophthora infestans; read-out: % Control TLB, application rate 100 ppm): 95%; pest or weed control at 100 ppm [3]: 0%; pest or weed control at 25 ppm [5, 7]: 80% |
| CCCCCCCCNC(=O)/C=C\SC(=O)C1CC1 [Compound 49, N-octyl-cis-3-(cyclopropanecarbonylthio)acrylamide] |  |  | 75% |  |  | > 250 µg/mL | 80% | 99% |  |  |  | pest or weed control at 12 ppm (Piricularia oryzae; Pyricularia oryzae, read-out: % Control RB, application rate 12 ppm): 50% |
| CC(C)(C)CC(C)(C)NC(=O)/C=C\SC(=O)c1ccccc1 [Compound 114] | 90% |  |  | 0% | 0% | > 250 µg/mL |  |  | 0% | 50% | 95% |  |
| CCCCCCCCNC(=O)/C=C\SC(=O)c1ccc([N+](=O)[O-])c([N+](=O)[O-])c1 [Compound 112, N-octyl-cis-3-[(3,4-dinitrobenzoyl)thio]acrylamide] |  |  |  | 0% | 50% | > 250 µg/mL | 90% |  | 0% | 50% | 99% |  |
| N-octyl-cis-3-(ferrocenecarbonylthio)acrylamide [Compound 81] |  |  |  |  |  |  |  |  |  |  |  | % Control TLB (Phytophthora infestans; in vivo): 100 % Control; % Control RSB [1]: 0 % Control; % Control WPM [3]: 85 % Control; % Control CDM [4]: 0 % Control; % Control RB (Piricularia oryzae): 75 % Control; % Control WLR [5]: 25 % Control; MIC Ps.fl (Pseudomonas fluorescens): > 250 Ppm |
